Test results reported in the NIST ThermoML archive (doi:10.1016/j.jct.2010.08.019).

Assay: xn = mol fraction of the nth substance listed
Conditions: for surface tension liquid-gas: Wilhelmy-plate method; for viscosity / mass density: 101 kPa, Liquid; for viscosity: Falling or rolling sphere viscometry; for mass density: Vibrating tube method

CC(C)CC(C)(C)C [2,2,4-trimethylpentane] + CC(C)O
Conditions	mass density [kg/m3]	surface tension liquid-gas [mN/m]	viscosity [mPa·s]
293.15 K, x2 = 0	691.98	18.8	0.503
293.15 K, x2 = 0.0501	693.38	–	0.502
293.15 K, x2 = 0.1006	695.3	18.8	0.509
293.15 K, x2 = 0.1512	697.45	–	0.517
293.15 K, x2 = 0.2003	699.71	18.9	0.53
293.15 K, x2 = 0.2501	702.18	–	0.543
293.15 K, x2 = 0.3003	704.91	19	0.563
293.15 K, x2 = 0.3502	707.91	–	0.593
293.15 K, x2 = 0.4004	711.2	19	0.628
293.15 K, x2 = 0.4502	714.74	–	0.662
293.15 K, x2 = 0.5001	718.61	19.2	0.699
293.15 K, x2 = 0.55	722.8	–	0.755
293.15 K, x2 = 0.5998	727.34	19.3	0.82
293.15 K, x2 = 0.6502	732.45	–	0.906
293.15 K, x2 = 0.7002	737.93	19.6	1.004
293.15 K, x2 = 0.7499	743.9	–	1.12
293.15 K, x2 = 0.7999	750.57	20	1.264
293.15 K, x2 = 0.85	757.91	–	1.439
293.15 K, x2 = 0.8999	766.04	20.6	1.666
293.15 K, x2 = 0.95	775.2	–	1.96
303.15 K, x2 = 0	683.61	17.9	0.447
303.15 K, x2 = 0.05	684.93	–	0.444
303.15 K, x2 = 0.1	686.65	17.9	0.45
303.15 K, x2 = 0.1499	688.68	–	0.457
303.15 K, x2 = 0.2004	690.94	17.9	0.464
303.15 K, x2 = 0.2497	693.36	–	0.474
303.15 K, x2 = 0.3	696.11	18	0.491
303.15 K, x2 = 0.3499	699.03	–	0.508
303.15 K, x2 = 0.4008	702.3	18	0.532
303.15 K, x2 = 0.4503	705.79	–	0.558
303.15 K, x2 = 0.5	709.61	18.1	0.589
303.15 K, x2 = 0.5498	713.82	–	0.633
303.15 K, x2 = 0.6001	718.44	18.3	0.682
303.15 K, x2 = 0.65	723.45	–	0.745
303.15 K, x2 = 0.7001	728.94	18.6	0.814
303.15 K, x2 = 0.7495	734.92	–	0.899
303.15 K, x2 = 0.7989	741.51	19	0.995
303.15 K, x2 = 0.8499	748.97	–	1.158
303.15 K, x2 = 0.8997	757.15	19.6	1.307
303.15 K, x2 = 0.95	766.32	–	1.485
313.15 K, x2 = 0	675.23	16.9	0.404
313.15 K, x2 = 0.0499	676.34	–	0.398
313.15 K, x2 = 0.1001	677.92	16.9	0.401
313.15 K, x2 = 0.1503	679.86	–	0.405
313.15 K, x2 = 0.2001	682.09	16.9	0.412
313.15 K, x2 = 0.2499	684.47	–	0.42
313.15 K, x2 = 0.3003	687.15	17	0.43
313.15 K, x2 = 0.3497	689.97	–	0.449
313.15 K, x2 = 0.4	693.18	17.1	0.458
313.15 K, x2 = 0.4502	696.67	–	0.476
313.15 K, x2 = 0.5005	700.49	17.2	0.5
313.15 K, x2 = 0.5499	704.67	–	0.529
313.15 K, x2 = 0.6	709.23	17.5	0.569
313.15 K, x2 = 0.6498	714.27	–	0.61
313.15 K, x2 = 0.6999	719.71	17.8	0.657
313.15 K, x2 = 0.75	725.83	–	0.719
313.15 K, x2 = 0.7998	732.49	18.2	0.782
313.15 K, x2 = 0.8498	739.89	–	0.87
313.15 K, x2 = 0.8999	748.21	18.8	0.987
313.15 K, x2 = 0.9499	757.39	–	1.129
323.15 K, x2 = 0	666.8	16.2	0.365
323.15 K, x2 = 0.0501	667.65	–	0.359
323.15 K, x2 = 0.1	669.08	16.2	0.36
323.15 K, x2 = 0.15	670.98	–	0.366
323.15 K, x2 = 0.1998	673.08	16.2	0.37
323.15 K, x2 = 0.25	675.42	–	0.375
323.15 K, x2 = 0.3	677.99	16.2	0.383
323.15 K, x2 = 0.35	680.86	–	0.392
323.15 K, x2 = 0.4	683.93	16.3	0.403
323.15 K, x2 = 0.4499	687.34	–	0.417
323.15 K, x2 = 0.5	691.07	16.4	0.433
323.15 K, x2 = 0.5501	695.17	–	0.456
323.15 K, x2 = 0.6	699.74	16.7	0.479
323.15 K, x2 = 0.65	704.78	–	0.508
323.15 K, x2 = 0.7	710.22	17	0.544
323.15 K, x2 = 0.7499	716.22	–	0.588
323.15 K, x2 = 0.7999	722.88	17.4	0.632
323.15 K, x2 = 0.85	730.48	–	0.696
323.15 K, x2 = 0.9	738.82	18	0.776
323.15 K, x2 = 0.95	748.16	–	0.875
